From patent US10799600B1, “Targeted nanoparticles” (nanoDERM Sciences, Inc., priority 2010, dated 2020)

Experiments:
[1] = system: multi-drug resistant (MRSA) Staphylococcus aureus (NRS-385); experiment: Clearing zone test on tryptic soy agar against MRSA; assay type: cell-based; settings: for resistance / sensitivity to control antibiotics: clinically relevant dose 10 μg/ml
Description: (§1) FIG. 8 nanogels conjugated with polymyxin B (PmxnB) or vancomycin (VCM) and/or loaded with 5 mg/ml penicillin/streptomycin (Pen/Strep), and tested on tryptic soy agar for activity against multi-drug resistant (MRSA) Staphylococcus aureus (NRS-385). (1) unmodified particle, Pen/Strep loaded; (2) unmodified particle; (3) Pen-Strep loaded and conjugated with PmxnB; (4) conjugated with PmxnB; (5) conjugated with VCM, Pen-Strep loaded; (6) conjugated with VCM; (7) conjugated with PmxnB/AMCA, Pen/Strep loaded; (8) conjugated with PmxnB/AMCA (fluorescent agent); (9) conjugated with VCM/AMCA, Pen/Strep loaded; (10) conjugated with VCM/AMCA; (11) PmxnB at 5 mg/ml; (12) VCM at 5 mg/ml; (13) Pen/Strep at 5 mg/nil; (14) PmxnB at 100 μg/ml; (15) VCM at 100 μg/ml; (16) Pen/Strep at 100 μg/ml; (17) PmxnB at 10 μg/ml; (18) VCM at 10 μg/ml; (19) Pen/Strep at 10 μg/ml.
(§2) Acinetobacter baumannii (a) treated with the hydrogel conjugated with polymyxin B (PMB) produced a clearing zone of ˜15 mm in diameter. […] Methicillin-resistant S. aureus (MRSA) (b) treated with VCM-conjugated particles produced a clearing zone of ˜15 mm in diameter.
(§3) The concept for targeted killing of bacterial pathogens with the hydrogels of the invention is illustrated in FIG. 1.

[2] = system: multi-drug resistant (and expanded-spectrum beta-lactamase resistant) Acinetobacter baumannii (BAA-1605); experiment: Clearing zone test on tryptic soy agar against multi-drug resistant Acinetobacter baumannii; assay type: cell-based; settings: for resistance / sensitivity to control antibiotics: clinically relevant dose 10 μg/ml, A. baumannii
Description: as §1, with “FIG. 7 nanogels conjugated” for “FIG. 8 nanogels conjugated”, “with 5 mg/nil penicillin/streptomycin (Pen/Strep),” for “with 5 mg/ml penicillin/streptomycin (Pen/Strep),”, “multi-drug resistant (and expanded-spectrum beta-lactamase resistant) Acinetobacter baumannii (BAA-1605). (1) unmodified” for “multi-drug resistant (MRSA) Staphylococcus aureus (NRS-385). (1) unmodified”, “at 5 mg/ml; (14) PmxnB” for “at 5 mg/nil; (14) PmxnB”
as §2, §3

CN[C@H](CC(C)C)C(=O)N[C@H]1C(=O)N[C@@H](CC(N)=O)C(=O)N[C@H]2C(=O)N[C@H]3C(=O)N[C@H](C(=O)N[C@H](C(=O)O)c4cc(O)cc(O)c4-c4cc3ccc4O)[C@H](O)c3ccc(c(Cl)c3)Oc3cc2cc(c3O[C@@H]2O[C@H](CO)[C@@H](O)[C@H](O)[C@H]2O[C@H]2C[C@](C)(N)[C@H](O)[C@H](C)O2)Oc2ccc(cc2Cl)[C@H]1O [Free VCM, Vancomycin]
resistance / sensitivity to control antibiotics [1]: sensitive
clearing zone ([1]; free antibiotic 10 μg/ml): ~6 mm
resistance / sensitivity to control antibiotics [2]: resistant
inhibition (clearing zone) ([2]; free control antibiotics (10 μg/ml), MDR A. baumannii): no inhibition

polymyxin B [Free PMB]
resistance / sensitivity to control antibiotics [1]: resistant
inhibition (clearing zone) ([1]; free control antibiotics at 10 μg/ml): no inhibition
resistance / sensitivity to control antibiotics [2]: sensitive
clearing zone ([2]; free antibiotic 10 μg/ml, MDR A. baumannii): ~6 mm
